These are literature values, as cited in patent publication US20150030707A1, “Rhus Coriaria L. Extract For Use In The Treatment Of Hyperhidrosis” (BIOMEDICAL RESEARCH S.R.L., priority 2012, published 2015).

For the series the following is noted: in vivo.

botulinum toxin: the “duration of efficacy of the injections” value is listed as 5-6 months.
